# Laboratory results published in patent US20200016097A1, “Methods for Preventing and Treating Radiation-Induced Epithelial Disorders” (priority 2009, published 2020).
# Tested on: IEC-18 cells
# Assay: Repair of mechanically wounded IEC-18 monolayers
# Assay type: cell-based, rat
# Conditions: 5% PEG 15-20, 50 ng/ml EGF; after 24 hours
# Protocol: In order to assess the ability of HMW PEG to induce the repair of epithelial monolayers following injury, IEC-18 cells were grown to confluency in 60 mm dishes, rinsed then the monolayer was mechanically wounded using a razor blade. Detached cells were removed and fresh medium containing 5% PEG 15-20, 50 ng/ml Epidermal Growth Factor (EGF) or a combination of both was added. The cells were maintained in the presence of treatment for 24 hours or were treated for 2 minutes, washed then incubated without treatment for 24 hours. Wound healing was assessed by the decrease in the length of the wound after 24 hours.
substance,measurement,value
"EGF: Epidermal Growth Factor, 50 ng/ml (NSDSECPLSHDGYCLHDGVCMYIEALDKYACNCVVGYIGERCQYRDLKWWELR; UniProt P01133 971-1023, looked up)",wound healing (decrease in the length of the wound),induced wound healing
